In series [1] the test system is B cells. It is filed as cell-based.
The nature of series [2]: Modified LD50 technique. The class given is in vivo, mouse. To be noted: 11 mg i.p.
Series [3] concerns MCP-1- and LPS-induced dermal inflammation. In words: Dermal inflammation model (intradermal MCP-1 / LPS). To be noted: for MCP-1 induced recruitment of monocyte/macrophages in skin (in words): systemic treatment before intradermal MCP-1. It is filed as in vivo, rat. Here is the method: To assess the efficacy of an agent of the invention in the prevention of lipopolysaccharide (LPS)- and MCP-1-induced dermal inflammation in the rat, three different doses of CRD-Leu4Ile11Cys13peptide 3(3-12)[MCP-1] were administered. An inflammatory response was elicited by intradermal injection (ventral abdomen) of either 500 ng MCP-1 or 100 ng MCP-1 along with endotoxin-free phosphate-buffered saline vehicle (as a negative control) and bacterial lipopolysaccharide (LPS; as a positive control). Each substance was injected at a different site. The results obtained from animals were compared to CRD-Leu4Ile11Cys13 peptide 3(3-12)[MCP-1] treated, and PBS (diluent control) treated, animals. Thirty minutes prior to intradermal agonist administration, the animals received an intravenous loading dose (3, 30 or 300 mg) and a subcutaneous depot dose (0.1, 1 or 10 mg) (on dorsum) of the pan-chemokine inhibitor CRD-Leu4Ile11Cys13peptide 3(3-12)[MCP-1] (see, for example, Figure 12). Animals were sacrificed at 20-24 hours post injection. Serum and urine were collected. The intradermal sites of agonist injection were collected, bisected and the extent of the inflammatory response was assessed by histopathology and quantitative immunofluorescence (fixed and frozen) (for example, following MCP-1 injection, the number of monocyte/macrophages in the skin was determined using the anti-CD14 (MCA342 from Serotec; clone ED2) at 3 µg/ml overnight at 4°C. The second antibody was rat anti-mouse FITC (415-096-100 from Jackson ImmunoResearch) at 28 µg/ml for 6 hours at room temperature). In addition, toxicity of CRD-Leu4Ile11Cys13peptide 3(3-12)[MCP-1] was assessed by collection of the following tissue samples in 10% neutral buffered formalin for histologic analysis: lung, liver, kidney, spleen, thymus, heart, and antagonist (test agent) injection site.
Although MCP-1 is fairly specific as a monocyte/macrophage chemoattractant, dermal injection of LPS induces recruitment of a broader range of leukocytes, including T- and B-cells and neutrophils. Specific antibodies to rat B-cells (MCA 1432 from Serotec) were used at 10 µg/ml overnight at 4°C to determine whether CRD-Leu4Ile11Cys13 peptide 3(3-12)[MCP-1] affected the recruitment of this leukocyte subpopulation. Secondary antibody was anti-mouse FITC (415-096-100 from Jackson ImmunoResearch, as above).
(10 mg in 200 µl subcutaneous). Thirty minutes later, PBS, 50 ng LPS and 500 ng MCP-1 were injected into three separate sites on the ventral abdomen of each rat. Animals were sacrificed 24 hours later and the intradermal site was excised, and frozen in OCT embedding media. Five µm sections were collected from each rat intradermal site and stored at -20°C. The number of monocytes (anti-rat CD14, Serotec), T cells, neutrophils (anti-rat granulocytes, Harlan Seralab), B-lymphocytes (anti-rat B cells, Serotec), and MCP-1, IL-8, and TNF-α (anti-mouse TNF-α, R and D Systems) were measured. Eight test sections and two control sections were stained at each site for each animal through a distance of 2.5 mm. The median percentage area was determined for each animal and for each group using NIH image, as the largest variability of staining was between sections rather than in any one section.

In series [4] the test system is lung cells of normal mice. The experiment in a line: Cell number and cell type in the lungs of normal mice. It is filed as in vivo. On the procedure: To determine whether increasing doses of CRD-Leu4Ile11Cys13 peptide 3(3-12)[MCP-1] alters the cell number and type of cell within the lungs of normal mice, mice were injected intravenously, intravenously and intratracheally, or intratracheally alone with CRD-Leu4Ile11Cys13 peptide 3(3-12)[MCP-1]. Mice were sacrificed at 20-24 hours post injection. Lungs were collected for isolation of cells, which were subsequently counted and characterized by surface staining for CD3, CD4, CD8, B220, and Mac-1.

Positions of bridges follow the written chain, without caps; N, C: chain ends. Non-standard residues stand in square brackets, D forms with d. Residues, ends and D or L forms follow the SMILES beside them. Where only a bound is given, the exact number is not on record here.

`CC[C@@H](C)[C@H]1NC(=O)[C@@H](CCC(N)=O)NC(=O)[C@H](N)CSSC[C@H](C(N)=O)NC(=O)[C@@H](CC(C)C)NC(=O)[C@@H](CC(=O)O)NC(=O)[C@H]2CCCN2C(=O)[C@@H](CCCCN)NC(=O)[C@@H](CCC(N)=O)NC(=O)[C@@H](CCCCN)NC(=O)[C@@H](Cc2c[nH]c3ccccc23)NC1=O` (H-[dC][dQ][dI][dW][dK][dQ][dK][dP][dD][dL][dC]-NH2; disulfide 1-11): the “proliferation of B cells to tetanus toxoid (in words)” value in series [1] is given as “no effect”. Also, the “lethality after intraperitoneal administration (in words)” value in series [2] is recorded as “did not result in lethality”. Further, in series [3] (10 mg subcutaneous, 50 ng LPS), the “TNF-α, IL-8 and MCP-1 at the LPS intradermal site (in words)” value is recorded as “substantially reduced”; the “median percentage area stained for neutrophils, monocytes, CD4+ T lymphocytes and B-lymphocytes at the LPS site (in words)” value was “abolished”. In series [3] (rat, in vivo), the “recruitment of B-cells to the site of the LPS injection (in words)” value is reported as “substantially inhibited” and the “reduction in the number of monocyte/macrophages recruited in response to injected bacterial LPS” value was more than 80%. In addition, the “MCP-1 induced recruitment of monocyte/macrophages in skin (in words)” value in series [3] is listed as “completely abolished”. Moreover, in series [3] (listed as CRD-Leu4Ile11Cys13peptide 3(3-12)), the “MCP-1 induced recruitment of monocyte/macrophages in skin (in words)” value is “the inflammatory response is abolished”. For the same compound, in series [4] (high dose, all routes of administration), the “percentages of CD3, CD4, and B220 cells in lung of normal mice (in words)” value was “significantly reduced”. In addition, in series [4] (low dose (0.3 µg IV and/or 10 µg IT) compared to PBS), the “total number of cells isolated from the lungs of normal mice (in words)” value is on record as “higher”.

Source of the values: patent publication EP2386565A2, “Compounds and methods to inhibit or augment an inflammatory response” (Cambridge Enterprise Ltd., priority 1999, dated 2000).
